Values quoted from earlier work, collected in patent US8378072B2, “Methods for designing and synthesizing directed sequence polymer compositions via the directed expansion of epitope permeability” (Declion Pharmaceuticals, Inc., priority 2006, dated 2013).

How the values were obtained:
[1] = limited human trials; Kim et al. Clinical Immunology 2002
[2] = Raz et al., Lancet 2001
[3] = compared with COP-1
[4] = YFAK input ratio of 1:1:1:1 compared to input ratio of 1:1:10:6; Rasmussen et al.

AKPVVHLFANIVTPRTP [altered peptide ligand (APL) made from MBP83-99, placed into limited human trials]
clinical efficacy by evaluation using MRI [1]: clinically ineffective

VLGGGVALLRVIPALDSLTPANED [p277]
activity in the context of Type I diabetes [2]: apparent activity

YFAK: random sequence polymer consisting of the amino acids Y, F, A, and K
efficacy in EAE [3]: better efficacy | eliciting a recall response [4]: not effective
